Experimental data taken from US12404289B2 (Gilead Sciences, Inc., priority 2020, dated 2025).
Read-outs that look alike come from different tables or passages of the source.

How the values were obtained:
Type in all cases: cell-based
SARS-CoV-2 = SARS-CoV-2 antiviral assay (A549-hACE2, Nano luciferase); details: A549-hACE2 cells, SARS-CoV2-Nano, MOI 0.025, 48 h, Table 4, read-out: EC50 SARS CoV2
[1] = system: Respiratory syncytial virus recombinant with luciferase (RSV-Luc5); experiment: microbe, parasite or virus in culture; details: Table 3
[2] = system: Recombinant respiratory syncytial virus expressing the firefly luciferase protein (RSV-Fluc); experiment: microbe, parasite or virus in culture; details: Table 4
[3] = system: Respiratory syncytial virus (RSV) strain A2; experiment: RSV antiviral assay (HEp-2, 96 well); details: read-out: EC50 RSV HEP2 96; HEp-2 cells, RSV A2, MOI=4, 4 days, 96 well; Table 3
[4] = system: Respiratory syncytial virus (RSV) strain A2; experiment: Hep-2 RSV2 384-well assay (EC50-HEP2-384); details: HEp-2 cells, RSV A2, MOI=4, 4 days
[5] = read-out: EC50 RSVFluc-Hep2 384, HEp-2 cells, RSV-Luc5, MOI=0.5, 3 days, 384 well
[6] = human respiratory syncytial virus, HEp-2, 72 h, read-out: EC50 RSVFluc-Hep2 384, HEp-2 cells, RSV-Luc5, MOI=0.5, 3 days, 384 well
[7] = Severe acute respiratory syndrome coronavirus 2, 48 h
[8] = human respiratory syncytial virus, NHBE, 72 h, read-out: EC50 RSVFluc NHBE 96, NHBE cells, RSV-Fluc, MOI of 0.1, three days, 96 well
[9] = human respiratory syncytial virus, HEp-2, 96 h, Table 3
[10] = read-out: EC50 RSVFluc NHBE 96, NHBE cells, RSV-Fluc, MOI of 0.1, three days, 96 well

CCC(CC)COC(=O)[C@H](C)NP(=O)(OC[C@H]1O[C@@](C#N)(c2ccc3c(N)ncnn23)[C@H](OC(C)=O)[C@@H]1OC(C)=O)Oc1ccc(C(C)(C)C)c2ccccc12 (single isomer, unassigned) [Example 171b]
EC50 (SARS-CoV-2): 415 nM
EC50 [1, 5]: 537 nM

CCC(=O)O[C@H]1[C@@H](OC(=O)CC)[C@](C#N)(c2ccc3c(N)ncnn23)O[C@@H]1COP(=O)(N[C@@H](C)C(=O)OCC(CC)CC)Oc1ccc(C(C)(C)C)c2ccccc12 (single isomer, unassigned) [Example 172a]
EC50 [1, 6]: 750 nM

C[C@H](NP(=O)(OC[C@H]1O[C@@](C#N)(c2ccc3c(N)ncnn23)[C@H](O)[C@@H]1O)Oc1ccc(Cl)cc1)C(=O)OC1CCCCCCC1 (single isomer, unassigned) [Example 174b]
EC50 [1, 5]: 62.8 nM

CCC(CC)COC(=O)[C@H](C)NP(=O)(OC[C@H]1O[C@@](C#N)(c2ccc3c(N)ncnn23)[C@H](O)[C@@H]1O)Oc1ccc(C(C)(C)C)c2ccccc12 (single isomer, unassigned) [Example 170a]
EC50 (SARS-CoV-2; [7]): 960 nM
EC50 [1, 6]: 1420 nM

CCC(=O)O[C@H]1[C@@H](OC(=O)CC)[C@](C#N)(c2ccc3c(N)ncnn23)O[C@@H]1COP(=O)(N[C@@H](C)C(=O)OC1CC2(CCC2)C1)Oc1cccc2ccccc12 (single isomer, unassigned) [Example 87b]
EC50 [2, 8]: 7.36 nM
EC50 [3]: 8.3 nM
EC50 (SARS-CoV-2): 16.3 nM
EC50 [4, 9]: 44.9 nM

CCC(=O)O[C@H]1[C@@H](OC(=O)CC)[C@](C#N)(c2ccc3c(N)ncnn23)O[C@@H]1COP(=O)(N[C@@H](C)C(=O)OCC(CC)CC)Oc1ccc(C(C)(C)C)c2ccccc12 (single isomer, unassigned) [Example 172b]
EC50 (SARS-CoV-2; [7]): 871 nM
EC50 [1, 5]: 610 nM

CCC(CC)COC(=O)[C@H](C)NP(=O)(OC[C@H]1O[C@@](C#N)(c2ccc3c(N)ncnn23)[C@H](OC(C)=O)[C@@H]1OC(C)=O)Oc1ccc(C(C)(C)C)c2ccccc12 (single isomer, unassigned) [Example 171a]
EC50 (SARS-CoV-2): 931 nM
EC50 [1, 6]: 712 nM

C[C@H](NP(=O)(OC[C@H]1O[C@@](C#N)(c2ccc3c(N)ncnn23)[C@H](O)[C@@H]1O)Oc1ccc(Cl)cc1)C(=O)OC1CCCCCCC1 (single isomer, unassigned) [Example 174a]
EC50 [1, 5]: 7.09 nM

C[C@H](NP(=O)(OC[C@H]1O[C@@](C#N)(c2ccc3c(N)ncnn23)[C@H](O)[C@@H]1O)Oc1ccc(C(C)(C)C)cc1)C(=O)OC1CC(C)(C)C1 (stereo partly drawn) [Example 93, 3,3-dimethylcyclobutyl ((((2R,3S,4R,5R)-5-(4-aminopyrrolo[2,1-f][1,2,4]triazin-7-yl)-5-cyano-3,4-dihydroxytetrahydrofuran-2-yl)methoxy)(4-(tert-butyl)phenoxy)phosphoryl)-L-alaninate]
EC50 [2, 8]: 4.43 nM
EC50 (SARS-CoV-2; [7]): 123 nM
EC50 [4, 9]: 67.6 nM

CC(C)C(=O)O[C@H]1[C@@H](OC(=O)C(C)C)[C@](C#N)(c2ccc3c(N)ncnn23)O[C@@H]1COP(=O)(N[C@@H](C)C(=O)OCC1CC1)Oc1ccc(C(C)(C)C)cc1 (stereo partly drawn) [Example 104b, (2R,3R,4R,5R)-2-(4-aminopyrrolo[2,1-f][1,2,4]triazin-7-yl)-5-((((4-(tert-butyl)phenoxy)(((S)-1-(cyclopropylmethoxy)-1-oxopropan-2-yl)amino)phosphoryl)oxy)methyl)-2-cyanotetrahydrofuran-3,4-diyl bis(2-methylpropanoate)]
EC50 (SARS-CoV-2): 294 nM
EC50 [1, 6]: 22.8 nM
EC50 ([4]; Table 3): 57.8 nM

C[C@H](NP(=O)(OC[C@H]1O[C@@](C#N)(c2ccc3c(N)ncnn23)[C@H](O)[C@@H]1O)Oc1ccc(C(C)(C)C)cc1)C(=O)OC1CCC1 (single isomer, unassigned) [Example 31a]
EC50 [2, 8]: 6.33 nM
EC50 (SARS-CoV-2; [7]): 92.3 nM
EC50 [4, 9]: 29.2 nM

CCOC(=O)[C@H](C)NP(=O)(OC[C@H]1O[C@@](C#N)(c2ccc3c(N)ncnn23)[C@H](OC(=O)C(C)C)[C@@H]1OC(=O)C(C)C)Oc1ccc(C(C)(C)C)cc1 (single isomer, unassigned) [Example 18b]
EC50 [2, 10]: 15.1 nM
EC50 (SARS-CoV-2): 332 nM
EC50 ([4]; Table 1): 75 nM

C[C@H](NP(=O)(OC[C@H]1O[C@@](C#N)(c2ccc3c(=N)n(COP(=O)(O)OCc4ccccc4)cnn23)[C@H](O)[C@@H]1O)Oc1cccc2ccccc12)C(=O)OC1CC2(CCC2)C1 (stereo partly drawn) [Example 176, spiro[3.3]heptan-2-yl ((((2R,3S,4R,5R)-5-(3-((((benzyloxy)(hydroxy)phosphoryl)oxy)methyl)-4-imino-3,4-dihydropyrrolo[2,1-f][1,2,4]triazin-7-yl)-5-cyano-3,4-dihydroxytetrahydrofuran-2-yl)methoxy)(naphthalen-1-yloxy)phosphoryl)-L-alaninate]
EC50 [1, 6]: 153 nM

CCC(CC)COC(=O)[C@H](C)NP(=O)(OC[C@H]1O[C@@](C#N)(c2ccc3c(N)ncnn23)[C@H](OC(=O)C(C)C)[C@@H]1OC(=O)C(C)C)Oc1ccc(C(C)(C)C)c2ccccc12 (single isomer, unassigned) [Example 173a]
EC50 (SARS-CoV-2; [7]): 10000 nM
EC50 [1, 6]: 822 nM

CCC(C)(C)CCOC(=O)[C@H](C)NP(=O)(OC[C@H]1O[C@@](C#N)(c2ccc3c(N)ncnn23)[C@H](OC(C)=O)[C@@H]1OC(C)=O)Oc1ccccc1 (stereo partly drawn) [Example 106b, (2R,3R,4R,5R)-2-(4-aminopyrrolo[2,1-f][1,2,4]triazin-7-yl)-2-cyano-5-((((((S)-1-((3,3-dimethylpentyl)oxy)-1-oxopropan-2-yl)amino)(phenoxy)phosphoryl)oxy)methyl)tetrahydrofuran-3,4-diyl Diacetate]
EC50 [2, 8]: 12.2 nM
EC50 (SARS-CoV-2): 97.8 nM
EC50 ([4]; Table 3): 34.2 nM

CC(=O)O[C@H]1[C@@H](OC(C)=O)[C@](C#N)(c2ccc3c(N)ncnn23)O[C@@H]1COP(=O)(N[C@@H](C)C(=O)OC1CCC1)Oc1ccc(C(C)(C)C)cc1 (single isomer, unassigned) [Example 33a]
EC50 [2, 8]: 9.06 nM
EC50 (SARS-CoV-2; [7]): 134 nM
EC50 [4, 9]: 22.7 nM

CCC(CC)COC(=O)[C@H](C)NP(=O)(OC[C@H]1O[C@@](C#N)(c2ccc3c(N)ncnn23)[C@H](OC(=O)C(C)C)[C@@H]1OC(=O)C(C)C)Oc1ccc(C(C)(C)C)c2ccccc12 (stereo partly drawn) [Example 173, (2R,3R,4R,5R)-2-(4-aminopyrrolo[2,1-f][1,2,4]triazin-7-yl)-5-(((((4-(tert-butyl)naphthalen-1-yl)oxy)(((S)-1-(2-ethylbutoxy)-1-oxopropan-2-yl)amino)phosphoryl)oxy)methyl)-2-cyanotetrahydrofuran-3,4-diyl bis(2-methylpropanoate)]
EC50 [1, 6]: 798 nM

CC(=O)O[C@H]1[C@@H](OC(C)=O)[C@](C#N)(c2ccc3c(N)ncnn23)O[C@@H]1COP(=O)(N[C@@H](C)C(=O)OCC1CC1)Oc1ccc(C(C)(C)C)cc1 (single isomer, unassigned) [Example 102b]
EC50 (SARS-CoV-2): 86 nM
EC50 [1, 5]: 26 nM
EC50 ([4]; Table 3): 43 nM

CCC(CC)COC(=O)[C@H](C)NP(=O)(OC[C@H]1O[C@@](C#N)(c2ccc3c(N)ncnn23)[C@H](O)[C@@H]1O)Oc1ccc(C(C)(C)C)c2ccccc12 (stereo partly drawn) [Example 170, 2-ethylbutyl ((((2R,3S,4R,5R)-5-(4-aminopyrrolo[2,1-f][1,2,4]triazin-7-yl)-5-cyano-3,4-dihydroxytetrahydrofuran-2-yl)methoxy)((4-(tert-butyl)naphthalen-1-yl)oxy)phosphoryl)-L-alaninate]
EC50 [1, 6]: 1010 nM

CCC(=O)O[C@H]1[C@@H](OC(=O)CC)[C@](C#N)(c2ccc3c(N)ncnn23)O[C@@H]1COP(=O)(N[C@@H](C)C(=O)OC1CCC1)Oc1ccc(C(C)(C)C)cc1 (single isomer, unassigned) [Example 32b]
EC50 [2, 10]: 10.7 nM
EC50 (SARS-CoV-2): 59.7 nM
EC50 ([4]; Table 3): 30 nM

CCC(CC)COC(=O)[C@H](C)NP(=O)(OC[C@H]1O[C@@](C#N)(c2ccc3c(N)ncnn23)[C@H](OC(=O)C(C)C)[C@@H]1OC(=O)C(C)C)Oc1ccc(C(C)(C)C)c2ccccc12 (single isomer, unassigned) [Example 173b]
EC50 [1, 5]: 765 nM

CC(C)C(=O)O[C@H]1[C@@H](OC(=O)C(C)C)[C@](C#N)(c2ccc3c(N)ncnn23)O[C@@H]1COP(=O)(N[C@@H](C)C(=O)OC1CCC1)Oc1ccccc1 (single isomer, unassigned) [Example 21b]
EC50 [2, 10]: 33.1 nM
EC50 (SARS-CoV-2): 191 nM
EC50 ([4]; Table 1): 34.7 nM

CCC(CC)COC(=O)[C@H](C)NP(=O)(OC[C@H]1O[C@@](C#N)(c2ccc3c(N)ncnn23)[C@H](O)[C@@H]1O)Oc1ccc(C(C)(C)C)c2ccccc12 (single isomer, unassigned) [Example 170b]
EC50 (SARS-CoV-2): 923 nM
EC50 [1, 5]: 843 nM

CC(=O)O[C@H]1[C@@H](OC(C)=O)[C@](C#N)(c2ccc3c(N)ncnn23)O[C@@H]1COP(=O)(N[C@@H](C)C(=O)OC1CCC1)Oc1ccc(C(C)(C)C)cc1 (single isomer, unassigned) [Example 33b]
EC50 [2, 10]: 12.2 nM
EC50 (SARS-CoV-2): 231 nM
EC50 ([4]; Table 3): 27.2 nM
